Measured values taken from PubChem BioAssay (NCI).
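Values below derive from 48-hour exposures of cells grown in 96-well plates, with endpoints linearly interpolated between the two concentrations bracketing the appropriate inhibition level. At the GI50, growth is halved. At the TGI there is no net growth.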

Columns and labels:
Test in all cases: DTP human tumour cell line panel, 48 h
[1] = system: MALME-3M melanoma
[2] = system: NCI/ADR-RES ovarian
[3] = system: CAKI-1 renal
[4] = system: MDA-MB-231 breast
[5] = system: 786-0 renal
[6] = system: SF-268 CNS
[7] = system: M14 melanoma
[8] = system: PC-3 prostate
[9] = system: MOLT-4 leukemia
[10] = system: SF-539 CNS

Compound	TGI [1]	TGI [2]	TGI [3]	TGI [4]	TGI [5]	TGI [6]	TGI [7]	TGI [8]	TGI [9]	TGI [10]	GI50 [1]	GI50 [2]	GI50 [3]	GI50 [4]	GI50 [6]	GI50 [7]	GI50 [8]	GI50 [9]	GI50 [10]
OC1(c2ccccc2)CC2CCC(C1)N2CCCC(O)(c1ccccc1)c1ccccc1 (stereo not drawn)	39.1 µM	39.1 µM	27.1 µM	43.9 µM	25.6 µM	30.1 µM	30.8 µM	16.2 µM	36.3 µM	16.8 µM									
CN(C(=O)[C@H](NC(=O)OCc1ccccc1)c1ccccc1)C1CCCCC1N1CCCC1 (stereo partly drawn)	> 100 µM	> 100 µM	> 100 µM	> 100 µM	> 100 µM	> 100 µM	56.4 µM	> 100 µM	> 100 µM										
C=C1C(=O)OC2C1CCC(=C)C1CC(O)C(=C)C12 (stereo not drawn)	30.1 µM	54.9 µM	9.78 µM	31.6 µM	19.6 µM	31.7 µM	41 µM	28 µM	25 µM	35.2 µM									
C=CCn1c(-c2cc(C(C)(C)C)c(O)c(C(C)(C)C)c2)cs/c1=N\C(P(=O)(O)O)P(=O)(O)O	> 100 µM	> 100 µM	> 100 µM	> 100 µM	> 100 µM	> 100 µM	> 100 µM	> 100 µM	> 100 µM	> 100 µM									
COc1ccccc1N1CCN(CCCCNC(=O)c2ccc([N+](=O)[O-])o2)CC1	7.94 µM	> 100 µM	40.5 µM	77.1 µM	21.4 µM	35.4 µM	14.6 µM	39.8 µM	> 62.5 µM	19.5 µM									
CC12NC(=C(C#N)C#N)C(C#N)=C3NC(N)=C(C#N)C(=C31)Oc1ccccc12 (stereo not drawn)	> 100 µM	> 100 µM	> 100 µM	> 100 µM	> 100 µM	> 100 µM	> 100 µM	> 100 µM	> 31.6 µM	> 88.6 µM									
Cc1sc2c(c1C)C(=O)c1cccn1-2	> 100 µM	> 100 µM	> 100 µM	> 100 µM	> 100 µM	> 100 µM	> 100 µM	> 100 µM	> 100 µM										
COc1cc(C2CC(C)(N3CCOCC3)Oc3cc4c(cc32)OCO4)cc(OC)c1OC (stereo not drawn)	> 100 µM	> 100 µM	72.1 µM	> 100 µM	11.5 µM	> 100 µM	> 100 µM	> 100 µM	> 100 µM										
CCCNC1=C2C[C@@H](C)C[C@@H](OC)[C@@H](OC(=O)CCCN)[C@H](C)/C=C(\C)[C@@H](OC(N)=O)[C@H](OC)/C=C\C=C(/C)C(=O)NC(=CC1=O)C2=O	28.4 µM	86.2 µM	38.5 µM	36.7 µM	53.9 µM	36.7 µM	32.3 µM	26.9 µM	19.2 µM	39.9 µM									
COC(=O)C1OC(O[C@H]2CC[C@]3(C)[C@H]4CC=C5[C@@H]6CC(C)(C)CC[C@]6(C(=O)OC)CC[C@@]5(C)[C@]4(C)CC[C@H]3C2(C)C)C(O)C(O)C1O (stereo partly drawn)	38.2 µM	36.1 µM	21.8 µM	19.2 µM	19.2 µM	39.3 µM	30 µM	28.7 µM	> 100 µM										
c1ccc(CN2CCC(=NN3CCCCC3)CC2)cc1	> 100 µM	> 100 µM	> 100 µM	> 100 µM	> 100 µM	> 100 µM	> 100 µM	> 100 µM	> 100 µM	> 100 µM									
O=C(N/N=C(/COc1ccccc1)N=Cc1ccncc1)c1ccncc1		> 100 µM	> 100 µM	> 100 µM	> 100 µM	> 100 µM	> 100 µM	> 100 µM	> 100 µM	> 100 µM									
C=C1CC[C@@]2(C)[C@@H]([C@@H]1C)[C@H]1CC[C@@H]3[C@@]4(C)CC[C@H](O)C(C)(C)[C@@H]4CC[C@@]3(C)[C@]1(C)C[C@@H]2O	12.3 µM	14.2 µM	5.59 µM	4.75 µM		9.76 µM	32.7 µM	10.3 µM	> 100 µM	6.29 µM									
C1=N[C@]23C(=N[C@H](N=C2NCc2ccco2)[C@]24N=CNC2=N[C@H]3N=C4NCc2ccco2)N1	> 100 µM	> 100 µM	> 100 µM	> 100 µM		> 100 µM	> 100 µM	> 100 µM	> 100 µM	> 100 µM	> 100 µM	> 100 µM	19.5 µM	> 100 µM	> 100 µM	> 100 µM	> 100 µM	> 100 µM	> 100 µM
O=[N+]([O-])c1cc(Br)cc2cc(Cl)cnc12	> 100 µM	> 100 µM	> 100 µM	> 100 µM	> 100 µM	> 100 µM	> 100 µM	> 100 µM	> 100 µM	> 100 µM									
O=C(Nc1ccccc1)c1cc2ccccc2c(N=Nc2cccc([N+](=O)[O-])c2)c1O	> 100 µM	> 100 µM	> 100 µM	> 100 µM	> 100 µM	> 100 µM	> 100 µM	> 100 µM	> 100 µM	> 100 µM									
NC(Cc1ccc(O)cn1)C(=O)NC(C(=O)O)c1ccccc1 (stereo not drawn)	> 100 µM	> 100 µM	> 100 µM	> 100 µM	> 100 µM	> 100 µM		> 100 µM	> 100 µM	> 100 µM									
CC(=O)O[C@@H]1[C@H](OC2CCCCC2(c2ccccc2)c2ccccc2)O[N+]([O-])=CC12CCCCC2 (stereo partly drawn)		30.5 µM	27.5 µM	30 µM	26.2 µM	34.6 µM	33.8 µM	22.6 µM	> 100 µM	37.8 µM									
C[C@@H]1C[C@H]2OC(=O)[C@@]3(C)CCC[C@@](C)([C@@H]23)[C@@]1(O)CCc1ccoc1		> 100 µM	> 100 µM	> 100 µM	> 100 µM	> 100 µM	> 100 µM	> 100 µM	> 94.4 µM	> 100 µM									
COc1ccc(-c2nc(-c3ccc(OC)cc3)n(-c3ccccc3)n2)cc1		> 100 µM	> 100 µM	> 100 µM	> 100 µM	> 100 µM	> 100 µM	> 100 µM	> 100 µM	> 100 µM									
